Values of other authors in patent publication US6673767B1, “Gel composition and methods” (Alza Corporation, priority 1996, dated 2004).

Details: for Water Miscibility: solvent in water (Merck)

| Water Miscibility | reported solubility in water (solvent in water) | Compound |
| --- | --- | --- |
| insol. in water (Merck) |  | O=C(OCc1ccccc1)c1ccccc1 [Benzyl Benzoate, benzyl benzoate] |
| misc. with water (Merck) |  | CN1CCCC1=O [NMP, N-methyl-2-pyrrolidone] |
| 7% sol. in water (Merck) | 7.17 grams in 100 ml of water | CC(=O)OCC(COC(C)=O)OC(C)=O [Triacetin, triacetin] |
